For 33 molecules, IC50 results are on record in US7932270B2 (Cytokinetics, Inc., priority 2006, dated 2011).

The experiment addresses T1, chicken gizzard smooth muscle myosin subfragment-1 chemically crosslinked to cardiac or skeletal actin (Gallus gallus, UniProt P10587).
T1 construct: chicken gizzard smooth muscle myosin subfragment-1; from tissue; host or cells: chicken gizzard
The experiment in a line: Smooth muscle myosin ATPase dose response assay (pyruvate kinase/horseradish peroxidase/pyruvate oxidase-coupled, amplex red fluorescence). Format: biochemical. The conditions noted are these: read-out: IC50 Arithmetic Mean. Summed up: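 Readout is amplex red signal from coupled ATPase of actin-crosslinked gizzard myosin S1 (0.15 mM ATP, 12 mM K-PIPES, pH 7.00). IC50 is the half-maximal activity point of a four-parameter Hill fit.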

T1 sequence (P02607 2-151): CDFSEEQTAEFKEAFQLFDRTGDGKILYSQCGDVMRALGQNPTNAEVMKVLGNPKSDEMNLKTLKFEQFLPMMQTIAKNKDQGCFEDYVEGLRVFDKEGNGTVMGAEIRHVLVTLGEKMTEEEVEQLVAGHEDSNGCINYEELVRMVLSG
T1 sequence (P10587 84-789): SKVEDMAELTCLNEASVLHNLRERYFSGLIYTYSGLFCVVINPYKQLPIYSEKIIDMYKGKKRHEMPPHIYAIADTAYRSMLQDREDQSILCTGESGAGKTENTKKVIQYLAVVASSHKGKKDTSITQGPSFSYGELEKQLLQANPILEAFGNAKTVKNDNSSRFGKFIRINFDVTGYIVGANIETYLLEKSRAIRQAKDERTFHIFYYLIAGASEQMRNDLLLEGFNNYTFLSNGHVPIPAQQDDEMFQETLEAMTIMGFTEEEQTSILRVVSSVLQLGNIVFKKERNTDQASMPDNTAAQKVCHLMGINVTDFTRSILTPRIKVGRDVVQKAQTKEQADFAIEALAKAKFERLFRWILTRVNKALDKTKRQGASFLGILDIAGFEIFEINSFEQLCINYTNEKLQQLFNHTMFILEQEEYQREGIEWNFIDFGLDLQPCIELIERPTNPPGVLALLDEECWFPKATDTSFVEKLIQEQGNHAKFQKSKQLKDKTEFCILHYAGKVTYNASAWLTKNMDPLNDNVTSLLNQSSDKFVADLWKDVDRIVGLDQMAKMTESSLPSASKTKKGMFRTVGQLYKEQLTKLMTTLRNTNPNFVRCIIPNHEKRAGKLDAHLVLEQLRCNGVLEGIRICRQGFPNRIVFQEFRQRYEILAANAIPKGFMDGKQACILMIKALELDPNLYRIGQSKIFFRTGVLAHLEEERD

In general, IC50 refers to the point on the concentration scale where inhibition reaches its midpoint. For the molecule `NCc1ncccc1CNC(=O)c1cc(F)c(-c2cc[nH]n2)nc1NCCc1cccc(F)c1` [N-{[2-(aminomethyl)(3-pyridyl)]methyl}(5-fluoro-2-{[2-(3-fluorophenyl)ethyl]amino}-6-pyrazol-3-yl(3-pyridyl))carboxamide], the IC50 was determined as 14 nM.

In the case of `NCc1ncccc1CNC(=O)c1cc(F)c(-c2cn[nH]c2)nc1NCCc1cccc(F)c1` [N-{[2-(aminomethyl)(3-pyridyl)]methyl}(5-fluoro-2-{[2-(3-fluorophenyl)ethyl]amino}-6-pyrazol-4-yl(3-pyridyl))carboxamide], the IC50 came to 12 nM.

Take `N#Cc1ccccc1-c1ccc(C(=O)NCc2cccnc2CN)c(NCCc2cccc(F)c2)n1` [N-{[2-(aminomethyl)(3-pyridyl)]methyl}(6-(2-cyanophenyl)-2-{[2-(3-fluorophenyl)ethyl]amino}(3-pyridyl))carboxamide]: the IC50 is 6 nM.

With `Cc1cc(C(=O)NCc2cccnc2CN)c(NCCc2cccc(F)c2)nc1-c1ccccc1C#N` [N-{[2-(aminomethyl)(3-pyridyl)]methyl}(6-(2-cyanophenyl)-2-{[2-(3-fluorophenyl)ethyl]amino}-5-methyl(3-pyridyl))carboxamide], the IC50 was determined as 158 nM.

Consider `N#Cc1ccccc1-c1nc(NCCc2cccc(F)c2)c(C(=O)NCc2cccnc2CN)cc1F` [N-{[2-(aminomethyl)(3-pyridyl)]methyl}(6-(2-cyanophenyl)-5-fluoro-2-{[2-(3-fluorophenyl)ethyl]amino}(3-pyridyl))carboxamide], for which the IC50 amounted to 6 nM.

For the molecule `NCc1ncccc1CNC(=O)c1ccc(-c2cn[nH]c2)nc1NCCc1ccccn1` [N-{[2-(aminomethyl)(3-pyridyl)]methyl}{6-pyrazol-4-yl-2-[(2-(2-pyridyl)ethyl)amino](3-pyridyl)}carboxamide], the IC50 was 1240 nM.

On to `N#Cc1ccccc1-c1ccc(C(=O)NCc2ccccc2CN)c(NCCc2cccc(F)c2)n1` [N-{[2-(aminomethyl)phenyl]methyl}(6-(2-cyanophenyl)-2-{[2-(3-fluorophenyl)ethyl]amino}(3-pyridyl))carboxamide], for which the IC50 was determined as 24 nM.

Turning to `N#Cc1ccccc1-c1ccc(C(=O)NCc2ncccc2CN)c(NCCc2cccc(F)c2)n1` [N-{[3-(aminomethyl)(2-pyridyl)]methyl}(6-(2-cyanophenyl)-2-{[2-(3-fluorophenyl)ethyl]amino}(3-pyridyl))carboxamide], the IC50 stood at 624 nM.

For the molecule `N#Cc1ccccc1-c1ccc(C(=O)NCc2ccncc2CN)c(NCCc2cccc(F)c2)n1` [N-{[3-(aminomethyl)(4-pyridyl)]methyl}(6-(2-cyanophenyl)-2-{[2-(3-fluorophenyl)ethyl]amino}(3-pyridyl))carboxamide], the IC50 was found to be 56 nM.

Regarding `N#Cc1ccccc1-c1ccc(C(=O)NCC2CCCC(CN)C2)c(NCCc2cccc(F)c2)n1` (stereo not drawn) [N-{[3-(aminomethyl)cyclohexyl]methyl}(6-(2-cyanophenyl)-2-{[2-(3-fluorophenyl)ethyl]amino}(3-pyridyl))carboxamide], the IC50 amounted to 352 nM.

`N#Cc1ccccc1-c1ccc(C(=O)NCc2cccc(CN)c2)c(NCCc2cccc(F)c2)n1` [N-{[3-(aminomethyl)phenyl]methyl}(6-(2-cyanophenyl)-2-{[2-(3-fluorophenyl)ethyl]amino}(3-pyridyl))carboxamide]: the IC50 stood at 12 nM.

As for `NCc1ccnc(CNC(=O)c2ccc(-c3ccccc3)nc2NCCc2cccc(F)c2)c1` [N-{[4-(aminomethyl)(2-pyridyl)]methyl}(2-{[2-(3-fluorophenyl)ethyl]amino}-6-phenyl(3-pyridyl))carboxamide], the IC50 was found to be 1210 nM.

For `N#Cc1ccccc1-c1ccc(C(=O)NCc2cc(CN)ccn2)c(NCCc2cccc(F)c2)n1` [N-{[4-(aminomethyl)(2-pyridyl)]methyl}(6-(2-cyanophenyl)-2-{[2-(3-fluorophenyl)ethyl]amino}(3-pyridyl))carboxamide], the IC50 was found to be 598 nM.

As to `N#Cc1ccccc1-c1ccc(C(=O)NCc2cnccc2CN)c(NCCc2cccc(F)c2)n1` [N-{[4-(aminomethyl)(3-pyridyl)]methyl}(6-(2-cyanophenyl)-2-{[2-(3-fluorophenyl)ethyl]amino}(3-pyridyl))carboxamide], the IC50 was 401 nM.

For the molecule `N#Cc1ccccc1-c1ccc(C(=O)NCc2ccc(CN)cc2)c(NCCc2cccc(F)c2)n1` [N-{[4-(aminomethyl)phenyl]methyl}(6-(2-cyanophenyl)-2-{[2-(3-fluorophenyl)ethyl]amino}(3-pyridyl))carboxamide], the IC50 came to 277 nM.

For `NCc1ccc(CNC(=O)c2ccc(-c3ccccc3)nc2NCCc2cccc(F)c2)nc1` [N-{[5-(aminomethyl)(2-pyridyl)]methyl}(2-{[2-(3-fluorophenyl)ethyl]amino}-6-phenyl(3-pyridyl))carboxamide], the IC50 was 1060 nM.

Regarding `N#Cc1ccccc1-c1ccc(C(=O)NCc2ccc(CN)cn2)c(NCCc2cccc(F)c2)n1` [N-{[5-(aminomethyl)(2-pyridyl)]methyl}(6-(2-cyanophenyl)-2-{[2-(3-fluorophenyl)ethyl]amino}(3-pyridyl))carboxamide], the IC50 stood at 515 nM.

Turning to `N#Cc1ccccc1-c1ccc(C(=O)NCc2cncc(CN)c2)c(NCCc2cccc(F)c2)n1` [N-{[5-(aminomethyl)(3-pyridyl)]methyl}(6-(2-cyanophenyl)-2-{[2-(3-fluorophenyl)ethyl]amino}(3-pyridyl))carboxamide], the IC50 is 323 nM.

As to `NCCc1cccc(CNC(=O)c2ccc(-c3ccccc3)nc2NCCc2cccc(F)c2)n1` [N-{[6-(2-aminoethyl)(2-pyridyl)]methyl}(2-{[2-(3-fluorophenyl)ethyl]amino}-6-phenyl(3-pyridyl))carboxamide], the concentration for half-maximal inhibition (IC50) was determined as 24 nM.

Turning to `N#Cc1ccccc1-c1ccc(C(=O)NCc2cccc(CCN)n2)c(NCCc2cccc(F)c2)n1` [N-{[6-(2-aminoethyl)(2-pyridyl)]methyl}(6-(2-cyanophenyl)-2-{[2-(3-fluorophenyl)ethyl]amino}(3-pyridyl))carboxamide], the IC50 is 11 nM.

Regarding `CC(=O)N1CCN(c2ccc(CNC(=O)c3ccc(-c4ccccc4C#N)nc3NCCc3cccc(F)c3)cn2)CC1` [N-{[6-(4-acetylpiperazinyl)(3-pyridyl)]methyl}(6-(2-cyanophenyl)-2-{[2-(3-fluorophenyl)ethyl]amino}(3-pyridyl))carboxamide], the IC50 stood at 7750 nM.

As to `Cn1cc(-c2ccc(C(=O)NCc3cccc(CN)n3)c(NCCc3cccc(F)c3)n2)cn1` [N-{[6-(aminomethyl)(2-pyridyl)]methyl}(2-{[2-(3-fluorophenyl)ethyl]amino}-6-(1-methylpyrazol-4-yl)(3-pyridyl))carboxamide], the IC50 came to 136 nM.

For `NCc1cccc(CNC(=O)c2ccc(-c3ccccc3)nc2NCCc2cccc(F)c2)n1` [N-{[6-(aminomethyl)(2-pyridyl)]methyl}(2-{[2-(3-fluorophenyl)ethyl]amino}-6-phenyl(3-pyridyl))carboxamide], the IC50 amounted to 19 nM.

For the molecule `NCc1cccc(CNC(=O)c2ccc(-c3cn[nH]c3)nc2NCCc2cccc(F)c2)n1` [N-{[6-(aminomethyl)(2-pyridyl)]methyl}(2-{[2-(3-fluorophenyl)ethyl]amino}-6-pyrazol-4-yl(3-pyridyl))carboxamide], the IC50 stood at 121 nM.

On to `Cn1cc(-c2nc(NCCc3cccc(F)c3)c(C(=O)NCc3cccc(CN)n3)cc2Br)cn1` [N-{[6-(aminomethyl)(2-pyridyl)]methyl}(5-bromo-2-{[2-(3-fluorophenyl)ethyl]amino}-6-(1-methylpyrazol-4-yl)(3-pyridyl))carboxamide], for which the IC50 came to 27 nM.

For `NCc1cccc(CNC(=O)c2cc(Br)c(-c3ccccc3)nc2NCCc2cccc(F)c2)n1` [N-{[6-(aminomethyl)(2-pyridyl)]methyl}(5-bromo-2-{[2-(3-fluorophenyl)ethyl]amino}-6-phenyl(3-pyridyl))carboxamide], the IC50 came out at 604 nM.

Turning to `N#Cc1ccccc1-c1ccc(C(=O)NCc2cccc(CN)n2)c(NCCc2cccc(F)c2)n1` [N-{[6-(aminomethyl)(2-pyridyl)]methy}(6-(2-cyanophenyl)-2-{[2-(3-fluorophenyl)ethyl]amino}(3-pyridyl))carboxamide], the IC50 is 9 nM.

Take `NCc1ccc(CNC(=O)c2ccc(-c3ccccc3)nc2NCCc2cccc(F)c2)cn1` [N-{[6-(aminomethyl)(3-pyridyl)]methyl}(2-{[2-(3-fluorophenyl)ethyl]amino}-6-phenyl(3-pyridyl))carboxamide]: the half-maximal inhibitory concentration (IC50) was 420 nM.

With `CN(C)c1ccc(CNC(=O)c2ccc(-c3ccccc3C#N)nc2NCCc2cccc(F)c2)cn1` [N-{[6-(dimethylamino)(3-pyridyl)]methyl}(6-(2-cyanophenyl)-2-{[2-(3-fluorophenyl)ethyl]amino}(3-pyridyl))carboxamide], the IC50 amounted to 30200 nM.

Take `N#Cc1ccccc1-c1ccc(C(=O)NC[C@H]2CCN2C(=O)C(O)CO)c(NCCc2cccc(F)c2)n1` (stereo partly drawn) [N-{[(2R)-1-(2,3-dihydroxypropanoyl)azetidin-2-yl]methyl}(6-(2-cyanophenyl)-2-{[2-(3-fluorophenyl)ethyl]amino}(3-pyridyl))carboxamide]: the IC50 turned out to be 51 nM.

Regarding `Cn1cc(-c2nc(NCCc3cccc(F)c3)c(C(=O)NC[C@H]3CCCN3C(=O)C(O)CO)cc2F)cn1` (stereo partly drawn) [N-{[(2R)-1-(2,3-dihydroxypropanoyl)pyrrolidin-2-yl]methyl}(5-fluoro-2-{[2-(3-fluorophenyl)ethyl]amino}-6-(1-methylpyrazol-4-yl)(3-pyridyl))carboxamide], the IC50 was found to be 143 nM.

As to `N#Cc1ccccc1-c1nc(NCCc2cccc(F)c2)c(C(=O)NC[C@H]2CCCN2C(=O)C(O)CO)cc1F` (stereo partly drawn) [N-{[(2R)-1-(2,3-dihydroxypropanoyl)pyrrolidin-2-yl]methyl}(6-(2-cyanophenyl)-5-fluoro-2-{[2-(3-fluorophenyl)ethyl]amino}(3-pyridyl))carboxamide], the IC50 amounted to 110 nM.

`N#Cc1ccccc1-c1ccc(C(=O)NC[C@H]2CCCCN2C(=O)CN)c(NCCc2cccc(F)c2)n1` [N-{[(2R)-1-(2-aminoacetyl)(2-piperidyl)]methyl}(6-(2-cyanophenyl)-2-{[2-(3-fluorophenyl)ethyl]amino}(3-pyridyl))carboxamide]: the IC50 was 92 nM.
